Source: patent publication US20240124545A1, “COMPOSITIONS AND METHODS RELATING TO THE TREATMENT OF DISEASES” (ILC THERAPEUTICS LIMITED, priority 2021, published 2024)
Where “and” joins values, the source holds several entries; their conditions need not be identical. Equal values may be shown once. Read-outs that look alike come from different tables or passages of the source.

Tests used:
HIV-1 LAI [1] = test: HIV-1 LAI infectivity assay with β-galactosidase readout (Experiment 5); format: cell-based, human immunodeficiency virus type 1 (HIV-1) LAI strain; settings: for HIV infection blocked by control antiviral: 0.5 μM
HIV-1 LAI [2] = settings: for HIV Infectivity in HeLa CD4 βgal cells (β-gal units) - antiviral control / HIV Infectivity in HeLa CD4 βgal cells, percentage of vehicle - antiviral control: single data point
in vitro [3] = settings: human, uninfected HeLa-CD4-βgal cells
in vitro [4] = settings: human, uninfected HeLa-CD4-βgal cells; remark: listed apart in the source
[5] = XTT viability (cytotoxicity) assay, uninfected HeLa-CD4-βgal cells (Experiment 4); settings: human, uninfected HeLa-CD4-βgal cells

Q: For enfuvirtide, which “block of HIV infection by control inhibitor” value (HIV-1 LAI [1]) is on record?
A: The value was “completely blocked HIV infection”.

Q: What about the “HIV infection blocked by control antiviral” value (HIV-1 LAI [1]) of the same substance?
A: Its value is ~100%.

Q: What about the “HIV infection blocked by control antiviral” value (HIV-1 LAI [1]; listed as T20) of the same substance?
A: Its value is “over 99%”.

Q: And the “HIV-1 Infectivity in HeLa-CD4-βgal cells (% vehicle)” value (HIV-1 LAI [1]; control antiviral 0.5 μM, duplicate data points)?
A: The value was 0.0 % vehicle.

Q: What about the “HIV Infectivity in HeLa CD4 βgal cells (β-galactosidase units)” value (HIV-1 LAI [1]; control antiviral 0.5 μM, individual values) of the same substance?
A: The value was 3,953 RLU and 3,657 RLU.

Q: And the “HIV Infectivity in HeLa CD4 βgal cells (β-galactosidase units)” value (HIV-1 LAI [2])?
A: The value was 3,399 RLU and 4,452 RLU.

Q: What about the “HIV Infectivity in HeLa-CD4-βgal cells (% vehicle)” value (HIV-1 LAI [2]) of the same substance?
A: Its value is 0.1 % vehicle.

Q: What about the “HIV Infectivity in HeLa CD4 βgal cells (β-gal units) - antiviral control” value (HIV-1 LAI [2]; 0.00005 μM) of the same substance?
A: The value was 1,159,781 RLU.

Q: What about the “HIV Infectivity in HeLa CD4 βgal cells, percentage of vehicle - antiviral control” value (HIV-1 LAI [2]; 0.00005 μM) of the same substance?
A: The value was 102.2 % vehicle.

Q: And the “HIV Infectivity in HeLa CD4 βgal cells (β-gal units) - antiviral control” value (HIV-1 LAI [2]; 0.0003 μM)?
A: Its value is 1,083,305 RLU.

Q: What about the “HIV Infectivity in HeLa CD4 βgal cells, percentage of vehicle - antiviral control” value (HIV-1 LAI [2]; 0.0003 μM) of the same substance?
A: Its value is 95.4 % vehicle.

Q: What about the “HIV Infectivity in HeLa CD4 βgal cells (β-gal units) - antiviral control” value (HIV-1 LAI [2]; 0.001 μM) of the same substance?
A: The value was 1,061,348 RLU.

Q: And the “HIV Infectivity in HeLa CD4 βgal cells, percentage of vehicle - antiviral control” value (HIV-1 LAI [2]; 0.001 μM)?
A: Its value is 93.5 % vehicle.

Q: And the “HIV Infectivity in HeLa CD4 βgal cells (β-gal units) - antiviral control” value (HIV-1 LAI [2]; 0.006 μM)?
A: Its value is 518,832 RLU.

Q: What about the “HIV Infectivity in HeLa CD4 βgal cells, percentage of vehicle - antiviral control” value (HIV-1 LAI [2]; 0.006 μM) of the same substance?
A: The value was 45.5 % vehicle.

Q: What about the “HIV Infectivity in HeLa CD4 βgal cells (β-gal units) - antiviral control” value (HIV-1 LAI [2]; 0.03 μM) of the same substance?
A: The value was 73,650 RLU.

Q: And the “HIV Infectivity in HeLa CD4 βgal cells, percentage of vehicle - antiviral control” value (HIV-1 LAI [2]; 0.03 μM)?
A: Its value is 6.2 % vehicle.

Q: And the “HIV Infectivity in HeLa CD4 βgal cells (β-gal units) - antiviral control” value (HIV-1 LAI [2]; 0.2 μM)?
A: The value was 19,736 RLU.

Q: And the “HIV Infectivity in HeLa CD4 βgal cells, percentage of vehicle - antiviral control” value (HIV-1 LAI [2]; 0.2 μM)?
A: Its value is 1.5 % vehicle.

Q: And the “HIV infection blocked by control antivirals” value (HIV-1 LAI [2]; 0.5 μM)?
A: The value was ~100%.

Q: And the “HIV Infectivity in HeLa CD4 βgal cells (β-gal units) - antiviral control” value (HIV-1 LAI [2]; 0.8 μM)?
A: The value was 2,604 RLU.

Q: And the “HIV Infectivity in HeLa CD4 βgal cells, percentage of vehicle - antiviral control” value (HIV-1 LAI [2]; 0.8 μM)?
A: Its value is 0.0 % vehicle.

Q: What about the “HIV Infectivity in HeLa CD4 βgal cells (β-gal units) - antiviral control” value (HIV-1 LAI [2]; 4.0 μM) of the same substance?
A: The value was 1,950 RLU.

Q: And the “HIV Infectivity in HeLa CD4 βgal cells, percentage of vehicle - antiviral control” value (HIV-1 LAI [2]; 4.0 μM)?
A: The value was −0.1 % vehicle.

Q: What about the “HIV Infectivity in HeLa CD4 βgal cells (β-gal units) - antiviral control” value (HIV-1 LAI [2]; 20 μM) of the same substance?
A: The value was 1,538 RLU.

Q: And the “HIV Infectivity in HeLa CD4 βgal cells, percentage of vehicle - antiviral control” value (HIV-1 LAI [2]; 20 μM)?
A: Its value is −0.1 % vehicle.

Q: And the “loss of cell viability with control inhibitor” value (HeLa-CD4-βgal cells)?
A: The value was “minimal loss of cell viability”.

Q: And the viability at 48 h, 5e-05 µM (in vitro [3])?
A: The viability at 48 h, 5e-05 µM was 87.9%.

Q: What about the viability at 48 h, 0.0003 µM (in vitro [3]) of the same substance?
A: The viability at 48 h, 0.0003 µM was 87.4%.

Q: And the viability at 48 h, 0.001 µM (in vitro [3])?
A: The viability at 48 h, 0.001 µM was 81.4%.

Q: What about the viability at 48 h, 0.006 µM (in vitro [3]) of the same substance?
A: The viability at 48 h, 0.006 µM was 83.7%.

Q: What about the viability at 48 h, 0.03 µM (in vitro [3]) of the same substance?
A: The viability at 48 h, 0.03 µM was 79.6%.

Q: And the viability at 48 h, 0.2 µM (in vitro [3])?
A: Its viability at 48 h, 0.2 µM is 82.5%.

Q: And the viability at 48 h, 0.8 µM (in vitro [3])?
A: The viability at 48 h, 0.8 µM was 83.8%.

Q: What about the viability at 48 h, 4 µM (in vitro [3]) of the same substance?
A: Its viability at 48 h, 4 µM is 74.4%.

Q: What about the viability at 48 h, 20 µM (in vitro [3]) of the same substance?
A: The viability at 48 h, 20 µM was 57.1%.

Q: And the viability at 48 h, 0.5 µM (in vitro [4])?
A: The viability at 48 h, 0.5 µM was 93.1 ± 2.3%.

Q: And the CC50 at 48 h [5]?
A: The CC50 at 48 h was > 20 µM.
